Experimental data published in the supplement of paper PMC10307832.

Columns and labels:
Assay in all cases: relative viability (nuclei count vs DMSO), 5 days (fraction); higher = more cells survive
[1] = system: ABC-1
Outline: (§1)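 Nuclei were stained with Hoechst during a one-step fixation (final 0.05% Triton X-100, 1% formaldehyde, 1 ug/ml Hoechst) carried out 5 days after dosing, then counted on 4× images. The cells, lung cancer lines in 1536-well plates, had been dosed by pin tool the day after seeding with one drug alone or a fixed anchor-drug dose plus five library-drug doses (not always all listed) in √10 steps. Relative viability is the nuclei count in treated wells divided by that in vehicle wells, and each value is the median of duplicate plates.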

[2] = system: COR-L 105
Outline: as §1

[3] = system: ChaGo-K-1
Outline: as §1

[4] = system: EMC-BAC-2
Outline: as §1

[5] = system: EPLC-272H
Outline: as §1

[6] = system: HCC-15
Outline: as §1

[7] = system: HCC-78
Outline: as §1

[8] = system: HOP-62
Outline: as §1

[9] = system: LXF-289
Outline: as §1

[10] = system: NCI-H1666
Outline: as §1

[11] = system: NCI-H1755
Outline: as §1

[12] = system: NCI-H1915
Outline: as §1

[13] = system: NCI-H1975
Outline: as §1

[14] = system: NCI-H1993
Outline: as §1

[15] = system: NCI-H2023
Outline: as §1

[16] = system: NCI-H2085
Outline: as §1

[17] = system: NCI-H2126
Outline: as §1

[18] = system: NCI-H3122
Outline: as §1

[19] = system: NCI-H322M
Outline: as §1

[20] = system: NCI-H358
Outline: as §1

[21] = system: NCI-H441
Outline: as §1

[22] = system: UMC-11
Outline: as §1

How did the relative viability ([1]; first compound 0.005 µM) turn out when `CC1(C)CCC(c2ccc(Cl)cc2)=C(CN2CCN(c3ccc(C(=O)NS(=O)(=O)c4ccc(N[C@H](CCN5CCOCC5)CSc5ccccc5)c(S(=O)(=O)C(F)(F)F)c4)cc3)CC2)C1` [Navitoclax] + Nc1ncn([C@H]2C[C@H](O)[C@@H](CO)O2)c(=O)n1 [Decitabine] (partner 2 µM) was run?
The relative viability was 0.889.

What about the relative viability ([1]; first compound 0.01581 µM) of the same compound?
The relative viability was 1.21.

And the relative viability ([1]; first compound 0.05 µM)?
The relative viability was 1.02.

What about the relative viability ([1]; first compound 0.1581 µM) of the same compound?
Its relative viability is 0.986.

What about the relative viability ([1]; first compound 0.5 µM) of the same compound?
The relative viability was 1.

And the relative viability ([2]; first compound 0.005 µM)?
The relative viability was 0.737.

And the relative viability ([2]; first compound 0.01581 µM)?
The relative viability was 0.89.

And the relative viability ([2]; first compound 0.05 µM)?
The relative viability was 0.6.

What about the relative viability ([2]; first compound 0.1581 µM) of the same compound?
Its relative viability is 0.662.

And the relative viability ([2]; first compound 0.5 µM)?
The relative viability was 0.537.

What about the relative viability ([3]; first compound 0.005 µM) of the same compound?
Its relative viability is 0.498.

What about the relative viability ([3]; first compound 0.01581 µM) of the same compound?
Its relative viability is 0.549.

And the relative viability ([3]; first compound 0.05 µM)?
The relative viability was 0.392.

What about the relative viability ([3]; first compound 0.1581 µM) of the same compound?
The relative viability was 0.498.

What about the relative viability ([3]; first compound 0.5 µM) of the same compound?
The relative viability was 0.52.

What about the relative viability ([4]; first compound 0.005 µM) of the same compound?
The relative viability was 0.943.

What about the relative viability ([4]; first compound 0.01581 µM) of the same compound?
The relative viability was 1.03.

What about the relative viability ([4]; first compound 0.05 µM) of the same compound?
The relative viability was 0.963.

And the relative viability ([4]; first compound 0.1581 µM)?
Its relative viability is 0.915.

And the relative viability ([4]; first compound 0.5 µM)?
The relative viability was 0.911.

What about the relative viability ([5]; first compound 0.005 µM) of the same compound?
The relative viability was 0.346.

What about the relative viability ([5]; first compound 0.05 µM) of the same compound?
The relative viability was 0.377.

And the relative viability ([5]; first compound 0.1581 µM)?
The relative viability was 0.302.

What about the relative viability ([5]; first compound 0.5 µM) of the same compound?
The relative viability was 0.38.

What about the relative viability ([6]; first compound 0.005 µM) of the same compound?
Its relative viability is 0.64.

What about the relative viability ([6]; first compound 0.01581 µM) of the same compound?
The relative viability was 0.652.

And the relative viability ([6]; first compound 0.05 µM)?
Its relative viability is 0.386.

And the relative viability ([6]; first compound 0.1581 µM)?
The relative viability was 0.625.

What about the relative viability ([6]; first compound 0.5 µM) of the same compound?
Its relative viability is 0.411.

And the relative viability ([7]; first compound 0.005 µM)?
Its relative viability is 0.759.

And the relative viability ([7]; first compound 0.01581 µM)?
The relative viability was 0.732.

What about the relative viability ([7]; first compound 0.05 µM) of the same compound?
The relative viability was 0.605.

What about the relative viability ([7]; first compound 0.1581 µM) of the same compound?
The relative viability was 0.636.

What about the relative viability ([7]; first compound 0.5 µM) of the same compound?
Its relative viability is 0.798.

What about the relative viability ([8]; first compound 0.005 µM) of the same compound?
The relative viability was 0.22.

What about the relative viability ([8]; first compound 0.01581 µM) of the same compound?
The relative viability was 0.21.

And the relative viability ([8]; first compound 0.05 µM)?
The relative viability was 0.173.

And the relative viability ([8]; first compound 0.1581 µM)?
The relative viability was 0.191.

And the relative viability ([8]; first compound 0.5 µM)?
The relative viability was 0.205.

And the relative viability ([9]; first compound 0.005 µM)?
The relative viability was 0.347.

And the relative viability ([9]; first compound 0.01581 µM)?
Its relative viability is 0.389.

And the relative viability ([9]; first compound 0.05 µM)?
The relative viability was 0.349.

What about the relative viability ([9]; first compound 0.1581 µM) of the same compound?
Its relative viability is 0.349.

And the relative viability ([9]; first compound 0.5 µM)?
Its relative viability is 0.428.

And the relative viability ([10]; first compound 0.005 µM)?
Its relative viability is 0.781.

What about the relative viability ([10]; first compound 0.01581 µM) of the same compound?
Its relative viability is 0.759.

And the relative viability ([10]; first compound 0.05 µM)?
The relative viability was 0.628.

What about the relative viability ([10]; first compound 0.1581 µM) of the same compound?
Its relative viability is 0.692.

What about the relative viability ([10]; first compound 0.5 µM) of the same compound?
Its relative viability is 0.765.

And the relative viability ([11]; first compound 0.005 µM)?
Its relative viability is 0.664.

And the relative viability ([11]; first compound 0.01581 µM)?
Its relative viability is 0.727.

What about the relative viability ([11]; first compound 0.05 µM) of the same compound?
Its relative viability is 0.611.

And the relative viability ([11]; first compound 0.1581 µM)?
Its relative viability is 0.677.

What about the relative viability ([11]; first compound 0.5 µM) of the same compound?
Its relative viability is 0.697.

What about the relative viability ([12]; first compound 0.005 µM) of the same compound?
Its relative viability is 0.263.

And the relative viability ([12]; first compound 0.01581 µM)?
The relative viability was 0.242.

And the relative viability ([12]; first compound 0.05 µM)?
The relative viability was 0.274.

And the relative viability ([12]; first compound 0.1581 µM)?
The relative viability was 0.247.

What about the relative viability ([12]; first compound 0.5 µM) of the same compound?
Its relative viability is 0.25.

And the relative viability ([13]; first compound 0.005 µM)?
The relative viability was 0.432.

What about the relative viability ([13]; first compound 0.01581 µM) of the same compound?
Its relative viability is 0.392.

What about the relative viability ([13]; first compound 0.05 µM) of the same compound?
Its relative viability is 0.261.

What about the relative viability ([13]; first compound 0.1581 µM) of the same compound?
Its relative viability is 0.416.

What about the relative viability ([13]; first compound 0.5 µM) of the same compound?
The relative viability was 0.29.

And the relative viability ([14]; first compound 0.005 µM)?
Its relative viability is 0.659.

What about the relative viability ([14]; first compound 0.01581 µM) of the same compound?
The relative viability was 0.751.

What about the relative viability ([14]; first compound 0.05 µM) of the same compound?
The relative viability was 0.62.

What about the relative viability ([14]; first compound 0.1581 µM) of the same compound?
Its relative viability is 0.56.

What about the relative viability ([14]; first compound 0.5 µM) of the same compound?
Its relative viability is 0.596.

And the relative viability ([15]; first compound 0.005 µM)?
Its relative viability is 0.22.

What about the relative viability ([15]; first compound 0.01581 µM) of the same compound?
The relative viability was 0.248.

And the relative viability ([15]; first compound 0.05 µM)?
The relative viability was 0.188.

And the relative viability ([15]; first compound 0.1581 µM)?
Its relative viability is 0.191.

And the relative viability ([15]; first compound 0.5 µM)?
Its relative viability is 0.229.

What about the relative viability ([16]; first compound 0.005 µM) of the same compound?
The relative viability was 0.612.

And the relative viability ([16]; first compound 0.01581 µM)?
Its relative viability is 0.695.

What about the relative viability ([16]; first compound 0.05 µM) of the same compound?
The relative viability was 0.474.

What about the relative viability ([16]; first compound 0.1581 µM) of the same compound?
The relative viability was 0.579.

What about the relative viability ([16]; first compound 0.5 µM) of the same compound?
Its relative viability is 0.562.

What about the relative viability ([17]; first compound 0.005 µM) of the same compound?
Its relative viability is 0.595.

And the relative viability ([17]; first compound 0.01581 µM)?
Its relative viability is 0.647.

What about the relative viability ([17]; first compound 0.05 µM) of the same compound?
The relative viability was 0.522.

And the relative viability ([17]; first compound 0.1581 µM)?
The relative viability was 0.547.

And the relative viability ([17]; first compound 0.5 µM)?
The relative viability was 0.564.

And the relative viability ([18]; first compound 0.005 µM)?
The relative viability was 0.407.

And the relative viability ([18]; first compound 0.01581 µM)?
The relative viability was 0.446.

What about the relative viability ([18]; first compound 0.05 µM) of the same compound?
The relative viability was 0.471.

What about the relative viability ([18]; first compound 0.1581 µM) of the same compound?
The relative viability was 0.433.

And the relative viability ([18]; first compound 0.5 µM)?
Its relative viability is 0.444.

And the relative viability ([19]; first compound 0.005 µM)?
The relative viability was 0.722.

And the relative viability ([19]; first compound 0.01581 µM)?
Its relative viability is 0.863.

And the relative viability ([19]; first compound 0.05 µM)?
Its relative viability is 0.703.

And the relative viability ([19]; first compound 0.1581 µM)?
Its relative viability is 0.655.

And the relative viability ([19]; first compound 0.5 µM)?
The relative viability was 0.725.

And the relative viability ([20]; first compound 0.005 µM)?
Its relative viability is 0.234.

And the relative viability ([20]; first compound 0.01581 µM)?
The relative viability was 0.225.

And the relative viability ([20]; first compound 0.05 µM)?
Its relative viability is 0.206.

And the relative viability ([20]; first compound 0.1581 µM)?
Its relative viability is 0.213.

And the relative viability ([20]; first compound 0.5 µM)?
The relative viability was 0.187.

And the relative viability ([21]; first compound 0.005 µM)?
The relative viability was 0.255.

And the relative viability ([21]; first compound 0.01581 µM)?
The relative viability was 0.217.

What about the relative viability ([21]; first compound 0.05 µM) of the same compound?
Its relative viability is 0.207.

And the relative viability ([21]; first compound 0.1581 µM)?
Its relative viability is 0.2.

What about the relative viability ([21]; first compound 0.5 µM) of the same compound?
Its relative viability is 0.237.

What about the relative viability ([22]; first compound 0.005 µM) of the same compound?
The relative viability was 0.707.

And the relative viability ([22]; first compound 0.01581 µM)?
The relative viability was 0.635.

What about the relative viability ([22]; first compound 0.05 µM) of the same compound?
The relative viability was 0.616.

What about the relative viability ([22]; first compound 0.1581 µM) of the same compound?
Its relative viability is 0.547.

What about the relative viability ([22]; first compound 0.5 µM) of the same compound?
Its relative viability is 0.609.
